Experimental data as given in patent US12285407B2, “Bis-indolylmethane derivatives and uses thereof” (The University of The West Indies, priority 2018, dated 2025).
Where two headings read alike, the source gives them in different places.

Columns and labels:
Staphylococcus aureus = assay: Checkerboard synergy (FICI) of antibiotics with SP-BIM; assay type: cell-based; settings: Staphylococcus aureus, Staphylococcus aureus; for MIC: 24 h, antibiotic alone, read-out: MIC antibiotic only
Streptococcus pneumoniae [1] = assay: as above; assay type: cell-based; settings: for MIC: 24 h, antibiotic alone, read-out: MIC antibiotic only
Bacillus cereus = assay: as above; assay type: cell-based
Enterococcus faecium = assay: as above; assay type: cell-based; settings: Enterococcus faecium, Enterococcus faecium; for MIC: 24 h, antibiotic alone, read-out: MIC antibiotic only
Klebsiella pneumoniae = assay: as above; assay type: cell-based; settings: for MIC: 24 h, antibiotic alone, read-out: MIC antibiotic only
Escherichia coli = assay: as above; parameters: MIC SP-BIM 13 only / MIC in combination: Antibiotic: unit not given beside the values; settings: for MIC: 24 h
Candida albicans = assay: as above; parameters: MIC SP-BIM 13 only / MIC in combination: Antibiotic / MIC antibiotic only: unit not given beside the values
[2] = system: Streptococcus pyogenes ATCC 19615; assay: Broth microdilution MIC of SP-BIMs; assay type: cell-based; settings: ATCC19615, SP-BIM alone, read-out: MIC Streptococcus pyogenes ATCC 19615
[3] = system: Bacillus cereus ATCC 14579; assay: Broth microdilution MIC of SP-BIMs; assay type: cell-based; settings: ATCC14579, SP-BIM alone, read-out: MIC Bacillus cereus ATCC 14579
[4] = system: Enterococcus faecium ATCC 19434; assay: Broth microdilution MIC of SP-BIMs; assay type: cell-based; settings: ATCC19434, SP-BIM alone, read-out: MIC Enterococcus faecium ATCC 19434
[5] = system: Corynebacterium diphtheriae ATCC 27010; assay: Broth microdilution MIC of SP-BIMs; assay type: cell-based; settings: ATCC27010, SP-BIM alone, read-out: MIC Corynebacterium diphtheriae ATCC 27010
[6] = system: Staphylococcus aureus ATCC 12600; assay: Broth microdilution MIC of SP-BIMs; assay type: cell-based; settings: ATCC12600, SP-BIM alone, read-out: MIC Staphylococcus aureus ATCC 12600
[7] = system: Klebsiella pneumoniae ATCC 49472; assay: Broth microdilution MIC of SP-BIMs; assay type: cell-based; settings: ATCC49472, SP-BIM alone, read-out: MIC Klebisella pneumoniae ATCC 49472
[8] = system: Escherichia coli ATCC 35218; assay: Broth microdilution MIC of SP-BIMs; assay type: cell-based; settings: ATCC35218, SP-BIM alone, read-out: MIC Escherichia coli ATCC 35218
[9] = system: Salmonella typhimurium ATCC 14028; assay: Broth microdilution MIC of SP-BIMs; assay type: cell-based; settings: Salmonella enterica, read-out: MIC Salmonella tvpkimurium ATCC 14028
From the text: Reference microorganisms used in this study included: Bacillus cereus (American Type Culture Collection (ATCC) No. 14579), Streptococcus pyogenes (ATCC No. 19615), Staphylococcus aureus (ATCC No. 12600), Enterococcus faecium (ATCC No. 19434), Corynebacterium diphtheriae (ATCC No. 27010), Escherichia coli (ATCC No. 35218), Salmonella typhimurium (ATCC No. 14028), Pseudomonas aeruginosa (ATCC No. 27853), Klebsiella pneumoniae (ATCC No. 49472), and Candida albicans (ATCC No. 22972).
Prior to each experiment, cultures were streaked onto clean BHI agar plates and incubated at 35° C. for 24 hours. Colonies of the respective cultures were selected and inoculated in phosphate buffer saline (pH 7.5) to a 0.5 McFarland turbidity standard (equivalent to 10^8 CFU mL^−1). The bacterial suspension was then diluted 1:100 in cation adjusted Mueller Hinton Broth (ca-MHB) (Oxoid Ltd, Basingstoke, Hampshire, England).
Stock solutions (50 mg mL^−1) of the SP-BIM test compounds were prepared in DMSO and stored at 4° C. Working preparations of each compound was made up to 1 mg/mL in sterile deionized water with a final DMSO concentration of 10%.
To assess the antibiotic properties of the library of SP-BIMs, the broth microdilution assay was performed in 96-well microplates according to the Clinical and Laboratory Standards Institute 2014 Guidelines (CLSI 2014). The broth microdilution assay was used to determine the minimum inhibitory concentration (MIC). […] Bacterial cells (˜10^6 CFU mL^−1) were inoculated into cation adjusted-Mueller Hinton broth containing the test compound in a twofold serial dilution ranging between 250 μg mL^−1 and 0.02 μg mL^−1. Plates were incubated at 35° C. for 18 hours after which 50 μL of 5% resazurin solution was added to each well. Resazurin is a blue dye which, upon reduction by living cells, turns to a pink resorufin product. Plates were shaken for 1 hour after the addition of the dye. The MIC was recorded as the well with the lowest concentration of test compound where no color change was observed.

[10] = system: Pseudomonas aeruginosa ATCC 27853; assay: Broth microdilution MIC of SP-BIMs; assay type: cell-based; settings: ATCC27853, SP-BIM alone, read-out: MIC Pseudomonas aeruginosa ATCC 27853
[11] = system: Candida albicans ATCC 22972; assay: Broth microdilution MIC of SP-BIMs; assay type: cell-based; settings: ATCC22972, SP-BIM alone, read-out: MIC Candida albicans ATCC 22972
Streptococcus pneumoniae [12] = assay: Adjuvant broth microdilution (antibiotic MIC with SP-BIM at 50 μg/mL); assay type: cell-based; settings: Streptococcus pneumoniae, Streptococcus pneumonia, SP-BIM at 50 μg mL^−1
[13] = SP-BIM 9 in combination with the labelled antibiotic
[14] = SP-BIM 13 in combination with the labelled antibiotic
[15] = antibiotic in combination with SP-BIM 9
[16] = antibiotic in combination with SP-BIM 13
[17] = Streptococcus pneumonia (title: Streptococcus pyogenes), antibiotic + SP-BIM 9
[18] = Streptococcus pneumoniae, antibiotic + SP-BIM 13
[19] = MIC of the antibiotic in combination with SP-BIM 13
[20] = read-out: MIC of Kanamvcin with SP-BIM
[21] = read-out: MIC of Vancomvcin with SP-BIM

## O=C(O)c1cn(C2CC2)c2cc(N3CCNCC3)c(F)cc2c1=O [Ciprofloxacin, ciprofloxacin]
Staphylococcus aureus; SP-BIM 9 checkerboard
  MIC: 1 µg/mL
Staphylococcus aureus; SP-BIM 13 checkerboard
  MIC: 1 µg/mL
Staphylococcus aureus; [13]
  FIC of SP-BIM 9: 0.02
Staphylococcus aureus; [14]
  FIC of SP-BIM 13: 0.5
Staphylococcus aureus; antibiotic + SP-BIM 9
  Interpretation: Synergy (Synergy: FICI≤0.5)
  Σ FIC: <0.52
Staphylococcus aureus; antibiotic + SP-BIM 13
  Interpretation: Additive (Additive: FICI>0.5-1.0)
  Σ FIC: 1.0
Staphylococcus aureus; [15]
  MIC in combination, Antibiotic: 0.5 µg/mL
Staphylococcus aureus; [16]
  MIC in combination, Antibiotic: 0.5 µg/mL
Staphylococcus aureus; in combination with SP-BIM 9
  FIC of antibiotic: 0.50
Staphylococcus aureus; in combination with SP-BIM 13
  FIC of antibiotic: 0.5
Streptococcus pneumoniae [1]; Streptococcus pneumonia (title: Streptococcus pyogenes), SP-BIM 9 in combination with the labelled antibiotic
  FIC of SP-BIM 9: 0.26
Streptococcus pneumoniae [1]; [17]
  Interpretation: Synergy (Synergy: FICI≤0.5)
  Σ FIC: <0.27
Streptococcus pneumoniae [1]; Streptococcus pneumonia (title: Streptococcus pyogenes), in combination with SP-BIM 9
  FIC of antibiotic: 0.01
Streptococcus pneumoniae [1]; Streptococcus pneumoniae, Streptococcus pneumonia (title: Streptococcus pyogenes), SP-BIM 9 checkerboard
  MIC: 2 µg/mL
Streptococcus pneumoniae [1]; Streptococcus pneumoniae, Streptococcus pneumoniae, SP-BIM 13 checkerboard
  MIC: 2 µg/mL
Streptococcus pneumoniae [1]; Streptococcus pneumoniae, SP-BIM 13 in combination with the labelled antibiotic
  FIC of SP-BIM 13: 0.5
Streptococcus pneumoniae [1]; [18]
  Interpretation: Additive (Additive: FICI>0.5-1.0)
  Σ FIC: <1.0
Streptococcus pneumoniae [1]; Streptococcus pneumoniae, antibiotic in combination with SP-BIM 13
  MIC in combination, Antibiotic: 1 µg/mL
Streptococcus pneumoniae [1]; Streptococcus pneumoniae, in combination with SP-BIM 13
  FIC of antibiotic: 0.5
Bacillus cereus; 24 h, antibiotic alone, SP-BIM 9 checkerboard, read-out: MIC antibiotic only
  MIC: 8 µg/mL
Bacillus cereus; SP-BIM 9 concentration in combination with the labelled antibiotic
  MIC in combination, SP-BIM 9: 16 µg/mL
Bacillus cereus; [13]
  FIC of SP-BIM 9: 0.064
Bacillus cereus; [14]
  FIC of SP-BIM 13: 0.0
Bacillus cereus; antibiotic + SP-BIM 9
  Interpretation: Synergy (Synergy: FICI≤0.5)
  Σ FIC: <0.3
Bacillus cereus; antibiotic + SP-BIM 13
  Interpretation: Additive (Additive: FICI>0.5-1.0)
  Σ FIC: 1.0
Bacillus cereus; [15]
  MIC in combination, Antibiotic: 2 µg/mL
Bacillus cereus; in combination with SP-BIM 9
  FIC of antibiotic: 0.25
Bacillus cereus; in combination with SP-BIM 13
  FIC of antibiotic: 1.00
Enterococcus faecium; SP-BIM 9 checkerboard
  MIC: 8 µg/mL
Enterococcus faecium; SP-BIM 13 checkerboard
  MIC: 8 µg/mL
Enterococcus faecium; [14]
  FIC of SP-BIM 13: 0.5
Enterococcus faecium; antibiotic + SP-BIM 13
  Interpretation: Additive (Additive: FICI>0.5-1.0)
  Σ FIC: 0.6
Enterococcus faecium; [16]
  MIC in combination, Antibiotic: 1 µg/mL
Enterococcus faecium; in combination with SP-BIM 13
  FIC of antibiotic: 0.1
Klebsiella pneumoniae; SP-BIM 9 checkerboard
  MIC: 2 µg/mL
Klebsiella pneumoniae; SP-BIM 13 checkerboard
  MIC: 2 µg/mL
Klebsiella pneumoniae; [13]
  FIC of SP-BIM 9: 0.252
Klebsiella pneumoniae; [14]
  FIC of SP-BIM 13: 0.1
Klebsiella pneumoniae; antibiotic + SP-BIM 9
  Interpretation: Synergy (Synergy: FICI≤0.5)
  Σ FIC: <0.5
Klebsiella pneumoniae; antibiotic + SP-BIM 13
  Interpretation: Synergy (Synergy: FICI≤0.5)
  Σ FIC: <0.4
Klebsiella pneumoniae; [15]
  MIC in combination, Antibiotic: 0.5 µg/mL
Klebsiella pneumoniae; [16]
  MIC in combination, Antibiotic: 0.5 µg/mL
Klebsiella pneumoniae; in combination with SP-BIM 9
  FIC of antibiotic: 0.25
Klebsiella pneumoniae; in combination with SP-BIM 13
  FIC of antibiotic: 0.3
Escherichia coli; read-out: MIC antibiotic only, Escherichia coli, antibiotic alone
  MIC: 2 µg/mL
Escherichia coli; read-out: MIC antibiotic only, Escherichia coli, antibiotic alone, SP-BIM 9 checkerboard
  MIC: 2 µg/mL
Escherichia coli; [19]
  MIC in combination: Antibiotic: 1
Escherichia coli; [13]
  FIC of SP-BIM 9: 0.128
Escherichia coli; [14]
  FIC of SP-BIM 13: 0.1
Escherichia coli; antibiotic + SP-BIM 9
  Interpretation: Synergy (Synergy: FICI≤0.5)
  Σ FIC: <0.4
Escherichia coli; antibiotic + SP-BIM 13
  Interpretation: Additive (Additive: FICI>0.5-1.0)
  Σ FIC: <0.6
Escherichia coli; combination with SP-BIM 13
  FIC of antibiotic: 0.5
Escherichia coli; in combination with SP-BIM 9
  FIC of antibiotic: 0.25
Candida albicans; 24 h, read-out: MIC antibiotic only
  MIC: 63 µg/mL
Candida albicans; [19]
  MIC in combination: Antibiotic: 63
Candida albicans; [14]
  FIC of SP-BIM 13: 1.0
Candida albicans; antibiotic + SP-BIM 13
  Interpretation: Indifferent (Indifferent: FICI>1.0-4.0)
  Σ FIC: <2.0
Candida albicans; combination with SP-BIM 13
  FIC of antibiotic: 1.0

## CN(C)c1ccc(C(c2c[nH]c3ccccc23)c2c[nH]c3ccccc23)cc1 [SP-BIM 2, [bis(indoly-3-yl)-4-dimethylaminophenyl]methane]
[2]
  MIC: > 250 µg/mL
[3]
  MIC: > 250 µg/mL
[4]
  MIC: > 250 µg/mL
[5]
  MIC: > 250 µg/mL
[6]
  MIC: > 250 µg/mL
[7]
  MIC: > 250 µg/mL
[8]
  MIC: > 250 µg/mL
[9]
  MIC: 250 µg/mL
[10]
  MIC: 250 µg/mL
[11]
  MIC: 250 µg/mL
Streptococcus pneumoniae [12]; [20]
  MIC: 125 µg/mL
Streptococcus pneumoniae [12]; [21]
  MIC: 1 µg/mL

## CC(C)(C)c1cc(C(c2c[nH]c3ccccc23)c2c[nH]c3ccccc23)c(O)c(C(C)(C)C)c1 [SP-BIM 3, [bis(indol-3-yl)-3,5-di-tert-butyl-2-hydroxyphenyl]methane]
[2]
  MIC: > 250 µg/mL
[3]
  MIC: > 250 µg/mL
[4]
  MIC: > 250 µg/mL
[5]
  MIC: > 250 µg/mL
[6]
  MIC: > 250 µg/mL
[7]
  MIC: > 250 µg/mL
[8]
  MIC: > 250 µg/mL
[9]
  MIC: 250 µg/mL
[10]
  MIC: 250 µg/mL
[11]
  MIC: 250 µg/mL
Streptococcus pneumoniae [12]; [20]
  MIC: 125 µg/mL
Streptococcus pneumoniae [12]; [21]
  MIC: 1 µg/mL
